{
  "source": "patent US4673684A",
  "about": "“Amide derivatives and 5-lipoxygenase inhibitors containing the same as an active ingredient” (Terumo Corporation, priority 1984, dated 1987)",
  "note": "pIC50: −log10 of the molar value.",
  "data": [
    {"molecular_target": "T1, 5-lipoxygenase (Mus musculus, UniProt P48999)", "T1 construct": "The supernatant is used as a 5-lipogenase enzyme solution; endogenous in cells", "T1 sequence (P48999 1-674)": "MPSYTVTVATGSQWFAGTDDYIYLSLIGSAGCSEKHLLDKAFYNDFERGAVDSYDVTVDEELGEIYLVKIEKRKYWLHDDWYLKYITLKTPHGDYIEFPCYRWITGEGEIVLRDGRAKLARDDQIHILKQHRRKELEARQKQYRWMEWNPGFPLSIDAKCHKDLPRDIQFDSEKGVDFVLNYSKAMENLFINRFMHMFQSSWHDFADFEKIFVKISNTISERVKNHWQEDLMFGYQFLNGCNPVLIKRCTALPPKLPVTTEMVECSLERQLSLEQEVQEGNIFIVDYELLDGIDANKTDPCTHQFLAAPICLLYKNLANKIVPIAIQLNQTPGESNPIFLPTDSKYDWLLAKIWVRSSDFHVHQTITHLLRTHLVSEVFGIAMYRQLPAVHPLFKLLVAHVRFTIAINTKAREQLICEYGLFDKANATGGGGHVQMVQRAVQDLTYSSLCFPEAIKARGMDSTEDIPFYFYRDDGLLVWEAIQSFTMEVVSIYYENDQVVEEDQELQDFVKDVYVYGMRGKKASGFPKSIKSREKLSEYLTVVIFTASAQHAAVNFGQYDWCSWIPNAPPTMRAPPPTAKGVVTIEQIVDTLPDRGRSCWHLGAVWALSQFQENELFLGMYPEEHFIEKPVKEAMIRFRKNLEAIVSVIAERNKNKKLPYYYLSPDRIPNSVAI", "assay": "5-Lipoxygenase-inhibiting Activity (decrease in 5-HETE and LTB4 formed from radiolabelled arachidonic acid, enzyme solution from mouse mastcytoma cells P-815)", "format": "biochemical", "details": "not given", "procedure,_shortened": "(§1)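 Enzyme is sonicated 10,000 rpm supernatant of P-815 mouse mastocytoma cells, reacted 5 min at 37 °C with radiolabelled arachidonic acid, indomethacin and CaCl2 in pH 7.4 phosphate buffer. 5-HETE and LTB4 separated by TLC and counted by scintillation; IC50 or IC30 is concentration reducing product to 50% or 30% of control.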", "values": [
      {"smiles": "COc1cc(/C=C/C=C/C(=O)N2CCN(CCOC(c3ccccc3)c3ccccc3)CC2)ccc1O", "note": "[Example 89, N-[5-(3-methoxy-4-hydroxyphenyl)-2,4-pentadienoyl]-N'-(2-benzhydroxyethyl)piperazine]", "pIC50": 7.22},
      {"smiles": "COc1cc(/C=C/C=C/C(=O)N2CCN(CCOC(c3ccccc3)c3ccccc3)CC2)cc(OC)c1O", "note": "[Example 98, N-[5-(3,5-dimethoxy-4-hydroxyphenyl)-2,4-pentadienoyl)-N'-(2-benzhydroxyethyl)piperazine]", "pIC50": 8.05}
    ]},
    {"molecular_target": "T1, 5-lipoxygenase", "assay": "5-Lipoxygenase-inhibiting Activity (decrease in 5-HETE and LTB4 formed from radiolabelled arachidonic acid, enzyme solution from mouse mastcytoma cells P-815)", "format": "biochemical", "details": "5-HETE and LTB4 formation; mouse mastcytoma P-815 enzyme solution; 37° C., 5 min; pH 7.4; with indomethacin; read-out: 50% Inhibitory concentration IC50", "procedure,_shortened": "as §1", "values": [
      {"smiles": "COc1cc(/C=C/C=C/C(=O)N2CCN(CCCOC(c3ccccc3)c3ccccc3)CC2)ccc1O", "note": "[Example 90, N-[5-(3-methoxy-4-hydroxyphenyl)-2,4-pentadienoyl]-N'-(3-benzhydroxypropyl)piperazine]", "pIC50": 7.22},
      {"smiles": "COc1cc(/C=C/C=C/C(=O)NCCOC(c2ccccc2)c2ccccc2)ccc1O", "note": "[Example 91, 2-[5-(3-methoxy-4-hydroxy)phenyl-2,4-pentadienoyl]aminoethyl benzhydryl ether]", "pIC50": 7.22},
      {"smiles": "COc1cc(/C=C/C=C/C(=O)NCCCOC(c2ccccc2)c2ccccc2)ccc1O", "note": "[Example 92, 3-[5-[3-methoxy-4-hydroxyphenyl)-2,4-pentadienoyl]aminopropyl benzhydryl ether]", "pIC50": 7.05},
      {"smiles": "COc1ccc(/C=C/C=C/C(=O)NCCCCN2CCN(C(c3ccccc3)c3ccccc3)CC2)cc1OC", "note": "[Example 93]", "pIC50": 5.52},
      {"smiles": "COc1ccc(/C=C/C=C/C(=O)N2CCN(CCCOC(c3ccccc3)c3ccccc3)CC2)cc1OC", "note": "[Example 94, N-[5-(3,4-dimethoxyphenyl)-2,4-pentadienoyl]-N'-(3-benzhydroxypropyl)piperazine]", "pIC50": 5.40},
      {"smiles": "COc1cc(/C=C/C=C/C(=O)NCCn2cnc3c2c(=O)n(C)c(=O)n3C)cc(OC)c1OC", "note": "[Example 95]", "pIC50": 5.05},
      {"smiles": "COc1cc(/C=C/C=C/C(=O)NCCCCN2CCN(C(c3ccccc3)c3ccc(Cl)cc3)CC2)cc(OC)c1O", "note": "(centres unmarked) [Example 96, N-p-chlorobenzhydryl-N'-5-(3,5-dimethoxy-4-hydroxy)phenyl-2,4-pentadienlylaminobutylpiperazine]", "pIC50": 7.70},
      {"smiles": "COc1cc(/C=C/C=C/C(=O)NCCCCN2CCN(C(c3ccccc3)c3ccccc3)CC2)cc(OC)c1O", "note": "[Example 97, N-benzhydryl-N'-[4-[5-(3,5-dimethoxy-4-hydroxy)phenyl-2,4-pentadienoyl]aminobutyl]]", "pIC50": 7.40},
      {"smiles": "COc1cc(/C=C/C=C/C(=O)N2CCN(CCCOC(c3ccccc3)c3ccccc3)CC2)cc(OC)c1O", "note": "[Example 99]", "pIC50": 7.52},
      {"smiles": "COc1cc(/C=C/C=C/C(=O)NCCOC(c2ccccc2)c2ccccc2)cc(OC)c1O", "note": "[Example 100, 2-[5-(3,5-dimethoxy-4-hydroxy)phenyl-2,4-pentadienoyl]aminoethyl benzhydryl ether]", "pIC50": 8.00},
      {"smiles": "CC(OCCCN1CCN(C(=O)/C=C/c2ccc(O)c(O)c2)CC1)(c1ccccc1)c1ccc(Cl)cc1", "note": "(centres unmarked) [Example 101, N-[3-(3,4-dihydroxyphenyl)-2-propenoyl]-N'-[3-[1-phenyl-1-(p-chlorophenyl)ethoxy]propyl]piperazine]", "pIC50": 8.00},
      {"smiles": "COc1cc(/C=C/C(=O)N2CCN(CCOC(C)(c3ccccc3)c3ccc(Cl)cc3)CC2)ccc1O", "note": "(centres unmarked) [Example 102, N-[3-[3-methoxy-4-hydroxyphenyl)-2-propenoyl]-N'-[2-[1-phenyl-1-(p-chlorophenyl)ethoxy]ethyl]piperazine]", "pIC50": 6.70},
      {"smiles": "COc1cc(/C=C/C(=O)N2CCN(CCn3cnc4c3c(=O)n(C)c(=O)n4C)CC2)ccc1O", "note": "[Example 103, 7-[2-[4-[3(3-methoxy-4-hydroxyphenyl)-2-propenoyl]piperazin-1-yl]-ethyl]theophilline]", "pIC50": 4.52},
      {"smiles": "COc1ccc(/C=C/C(=O)N2CCN(CCCOC(C)(c3ccccc3)c3ccc(Cl)cc3)CC2)cc1OC", "note": "(centres unmarked) [Example 104, N-[3-(3,4-dimethoxy)phenyl-2-propenoyl]-N'-[3-[1-phenyl-1-(p-chlorophenyl)ethoxy]propyl]piperazine]", "pIC50": 5.00},
      {"smiles": "COc1cc(/C=C/C(=O)N2CCN(CCOC(C)(c3ccccc3)c3ccc(Cl)cc3)CC2)cc(OC)c1O", "note": "(centres unmarked) [Example 105, N-[3-(3,5-dimethoxy-4-hydroxyphenyl)-2-propenoyl]-N'-[2-[1-phenyl-1-(p-chlorophenyl)ethoxy]ethyl]piperazine]", "pIC50": 8.00},
      {"smiles": "COc1cc(/C=C/C(=O)N2CCN(CCCOC(C)(c3ccccc3)c3ccc(Cl)cc3)CC2)cc(OC)c1O", "note": "(centres unmarked) [Example 106, N-[3-(3,5-dimethoxy-4-hydroxy)phenyl-2-propenoyl]-N'-[3-[1-phenyl-1-(p-chlorophenyl)ethoxy]propyl]piperazine]", "pIC50": 8.00},
      {"smiles": "CC(OCCN1CCN(C(=O)/C=C/C=C/c2ccc(O)c(O)c2)CC1)(c1ccccc1)c1ccc(Cl)cc1", "note": "(centres unmarked) [Example 107, N-[5-(3,4-dihydroxyphenyl)-2,4-pentadienoyl]-N-[2-[1-phenyl-1-(p-chlorophenyl)-ethoxy]ethyl]piperazine]", "pIC50": 8.00},
      {"smiles": "CC(OCCCN1CCN(C(=O)/C=C/C=C/c2ccc(O)c(O)c2)CC1)(c1ccccc1)c1ccc(Cl)cc1", "note": "(centres unmarked) [Example 108, N-[5-(3,4-dihydroxy)phenyl-2,4-pentadienoyl]-N'-[3-[1-phenyl-1-(p-chlorophenyl)ethoxy]propyl]piperazine]", "pIC50": 8.10},
      {"smiles": "Cn1c(=O)c2c(ncn2CCN2CCN(C(=O)/C=C/C=C/c3ccc(O)c(O)c3)CC2)n(C)c1=O", "note": "[Example 109]", "pIC50": 5.70},
      {"smiles": "COc1cc(/C=C/C=C/C(=O)N2CCN(CCOC(C)(c3ccccc3)c3ccc(Cl)cc3)CC2)ccc1O", "note": "(centres unmarked) [Example 110, N-[5-(3-methoxy-4-hydroxyphenyl)-2,4-pentadienoyl]-N'-[2-[1-phenyl-1-(p-chlorophenyl)ethoxy]ethyl]piperazine]", "pIC50": 8.00},
      {"smiles": "COc1cc(/C=C/C=C/C(=O)N2CCN(CCCOC(C)(c3ccccc3)c3ccc(Cl)cc3)CC2)ccc1O", "note": "(centres unmarked) [Example 111, N-[5-(3-methoxy-4-hydroxy)phenyl-2,4-pentadienoyl)-N'-[3-[1-phenyl-1-(p-chlorophenyl)ethoxy]propyl]piperazine]", "pIC50": 8.00},
      {"smiles": "COc1cc(/C=C/C=C/C(=O)N2CCN(CCn3cnc4c3c(=O)n(C)c(=O)n4C)CC2)ccc1O", "note": "[Example 112]", "pIC50": 5.70},
      {"smiles": "COc1cc(/C=C/C=C/C(=O)N2CCN(CCOC(C)(c3ccccc3)c3ccc(Cl)cc3)CC2)cc(OC)c1O", "note": "(centres unmarked) [Example 113, N-[5-(3,5-dimethoxy-4-hydroxyphenyl]-2,4-pentadienoyl]-N'-[2-[1-phenyl-1-(p-chlorophenyl)ethoxy]ethyl]piperazine]", "pIC50": 7.70},
      {"smiles": "COc1cc(/C=C/C=C/C(=O)N2CCN(CCn3cnc4c3c(=O)n(C)c(=O)n4C)CC2)cc(OC)c1O", "note": "[Example 114]", "pIC50": 5.70},
      {"smiles": "COc1cc(/C=C/C=C/C(=O)N2CCN(CCn3cnc4c3c(=O)n(C)c(=O)n4C)CC2)cc(OC)c1OC", "note": "[Example 115, 7-[2-[4-[5-(3,4,5-trimethoxyphenyl)-2,4-pentadienoyl]piperazin-1-yl]ethyl]theophylline]", "pIC50": 4.70},
      {"smiles": "COc1cc(/C=C/C(=O)NCCN2CCC(OC(c3ccccc3)c3ccccc3)CC2)ccc1O", "note": "[Example 116, 1-[2-[3-(3-methoxy-4-hydroxyphenyl)-2-propenoyl]aminoethyl]-4-benzhydroxypiperidine]", "pIC50": 6.40},
      {"smiles": "COc1cc(/C=C/C(=O)NCCN2CCC(OC(c3ccccc3)c3ccccc3)CC2)cc(OC)c1O", "note": "[Example 117, 1-[2-[3-(3,5-dimethoxy-4-hydroxyphenyl)-2-propenoyl]aminoethyl]-4-benzhydroxypiperidine]", "pIC50": 7.70},
      {"smiles": "O=C(/C=C/C=C/c1ccc(O)c(O)c1)NCCN1CCC(OC(c2ccccc2)c2ccccc2)CC1", "note": "[Example 118]", "pIC50": 7.52},
      {"smiles": "COc1cc(/C=C/C=C/C(=O)NCCN2CCC(OC(c3ccccc3)c3ccccc3)CC2)ccc1O", "note": "[Example 119, 1-[2-[5-(3-methoxy-4-hydroxyphenyl)-2,4-pentadienoyl]aminoethyl]4-benzhydroxypiperidine]", "pIC50": 8.05},
      {"smiles": "COc1cc(/C=C/C=C/C(=O)NCCN2CCC(OC(c3ccccc3)c3ccccc3)CC2)cc(OC)c1O", "note": "[Example 120, 1-[2-[5-(3,5-dimethoxy-4-hydroxyphenyl)-2,4-pentadienoyl]aminoethyl]-4-benzhydroxypiperidine]", "pIC50": 8.00},
      {"smiles": "Cn1c(=O)c2c(ncn2CCCCN2CCN(C(=O)/C=C/c3ccc(O)c(O)c3)CC2)n(C)c1=O", "note": "[Example 121, 7-[4-[4-{3-(3,4-dihydroxyphenyl)-2-propenoyl}piperazi-1-nyl]butyl]theophylline]", "pIC50": 5.30},
      {"smiles": "O=C(/C=C/c1ccc(O)c(O)c1)NCCCN1CCC(OC(c2ccccc2)c2ccccc2)CC1", "note": "[Example 122, 1-[3-[3-(3,4-dihydroxyphenyl)-2-propenoyl]aminopropyl]-4-benzhydroxypiperidine]", "pIC50": 8.00},
      {"smiles": "COc1cc(/C=C/C(=O)N2CCN(CCCn3cnc4c3c(=O)n(C)c(=O)n4C)CC2)ccc1O", "note": "[Example 123]", "pIC50": 5.00}
    ]}
  ]
}
